Results reported in PubChem BioAssay (NCI).
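A five-concentration, 48-hour dose response in 96-well plates underlies each endpoint, interpolated linearly between surrounding concentrations. TGI marks complete inhibition of growth.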 Where a SMILES comes first, the peptide text is derived from it. The star is where a group is joined. Boc = CC(C)(C)OC(=O)*; OBn = c1ccc(CO*)cc1

Tests used:
Assay in all cases: NCI-60 cell line screen, 48 h
[1] = test system: SW-620 colon
[2] = test system: NCI-H460 lung
[3] = test system: OVCAR-3 ovarian
[4] = test system: DU-145 prostate
[5] = test system: IGROV1 ovarian
[6] = test system: A549 NSCLC
[7] = test system: SK-MEL-2 melanoma
[8] = test system: K-562 leukemia
[9] = test system: OVCAR-8 ovarian
[10] = test system: EKVX NSCLC
[11] = test system: SNB-75 CNS
[12] = test system: CAKI-1 renal
[13] = test system: SN12C renal
[14] = test system: HOP-62 NSCLC
[15] = test system: UO-31 renal
[16] = test system: KM12 colon
[17] = test system: UACC-62 melanoma
[18] = test system: SK-MEL-28 melanoma
[19] = test system: RXF 393 renal

SMILES | TGI [1] [µM] | TGI [2] [µM] | TGI [3] [µM] | TGI [4] [µM] | TGI [5] [µM] | TGI [6] [µM] | TGI [7] [µM] | TGI [8] [µM] | TGI [9] [µM] | TGI [10] [µM] | TGI [11] [µM] | TGI [12] [µM] | TGI [13] [µM] | TGI [14] [µM] | TGI [15] [µM] | TGI [16] [µM] | TGI [17] [µM] | TGI [18] [µM] | TGI [19] [µM]
CCOC(=O)NNC(=O)C1CSC(c2ccccc2)N1C(C)=O (stereo not given) | > 100 | > 100 | > 100 | > 100 | > 100 | > 100 | > 100 | > 100 | > 100 | > 100 | > 100 | > 100 | > 100 | > 100 | > 100 | > 100 | > 100 |  | 
COc1cc(C2SCC(=O)N2c2ccccc2Cl)cc(OC)c1OC (stereo not given) | > 100 | > 100 | > 100 | > 100 | > 100 | > 100 | > 100 | > 100 | > 100 | > 100 |  | > 100 | > 100 |  | > 100 | > 100 | > 100 | > 100 | 
O=C1CC(=O)NC(=NN2C(=O)/C(=C/C(=O)c3ccco3)N=C2c2ccccc2)N1 | > 100 | > 100 | > 100 | > 100 | > 100 | > 100 | > 100 |  | > 100 |  | > 100 | > 100 | > 100 | > 100 | > 100 | > 100 | > 100 | > 100 | > 100
COC(=O)Nc1nc2ccc(S(=O)(=O)NC(CC(C)C)C(=O)OC)cc2[nH]1 (stereo not given) | > 100 | > 100 | 2.7 |  | 6.45 | > 100 | > 100 | > 100 | > 100 | 89.8 | 8.16 | > 100 | > 100 | > 100 | > 100 | 12.6 | > 100 | > 100 | 15.9
O=C1c2ccccc2C(O)(C(=O)O)C1(O)CC=C(Cl)Cl (stereo not given) | > 125 | > 125 | > 125 |  | > 125 | > 125 | > 125 | > 125 | > 125 | > 125 | > 125 | > 125 | > 125 | > 125 | > 125 | > 125 | > 125 | > 125 | > 125
Cc1cc(C)nc(NS(=O)(=O)c2ccc(Nc3c4ccccc4nc4c(C(=O)NNCCO)cccc34)cc2)n1 | > 100 | > 100 | > 100 | > 100 | > 100 | > 100 | > 100 | > 100 | > 100 | > 100 |  | > 100 | > 100 | > 100 | > 100 | > 100 | > 100 | > 100 | 
O=C1CC(CC(O)[C@@H]2CCCC[C@@H]2O)CC(=O)N1c1ccccc1 (stereo not given in full) | > 100 | > 100 | > 100 | > 100 | > 100 | > 100 |  | > 100 | > 100 |  | > 100 | > 100 | > 100 | > 100 | > 100 | > 100 | > 100 | > 100 | > 100
Cc1ccc2c(c1)C(=O)/C(=N/Nc1ccc(Cl)cc1)CCO2 | > 100 | > 100 | > 100 | > 100 | > 100 | > 100 | 54.6 | > 100 | > 100 | > 100 | > 100 | > 100 | > 100 | > 100 | > 100 | > 100 | > 100 | > 100 | 
O=[n+]1c2ccccc2n([O-])c2ccccc21 | > 100 | > 100 |  | > 100 | > 100 | > 100 | > 100 | > 100 | > 100 | > 100 | > 100 | > 100 | > 100 | > 100 | > 100 |  | > 100 | > 100 | 
O=c1c(C=Nc2ccccc2Cl)c(O)n(-c2ccccc2)c(=O)n1-c1ccccc1 | > 100 | > 100 | > 100 |  | > 100 | > 100 | > 100 | > 100 | > 100 | > 100 |  | > 100 | > 100 | > 100 | > 100 | > 100 | > 100 |  | > 100
CC12CCC3[C@@H](CC3(C)C)C(O)(CCC1=O)C2 (stereo not given in full) | > 100 |  | > 100 | > 100 | > 100 | > 100 | > 100 | > 100 | > 100 | > 100 | > 100 | > 100 | > 100 | > 100 | > 100 | > 100 | > 100 | > 100 | 
Cc1oc2c(c1C)S(=O)(=O)C(C#N)C(c1ccccc1)N2 (stereo not given) | > 100 | > 100 | > 100 | > 100 | > 100 | > 100 | > 100 |  | > 100 | > 100 | > 100 | > 100 | > 100 | > 100 | > 100 | > 100 | > 100 | > 100 | 
CC(C)C(NC(=O)C(Cc1ccccc1)NC(=O)OC(C)(C)C)C(=O)NCC(=O)OCc1ccccc1 (stereo not drawn) (Boc-Phe-Val-Gly-OBn; configuration not given here) | 29.1 | 37.9 | 27.9 | 28.7 | 27.8 |  | 32 | 23.9 | 35.6 | 37.9 | 36 | 33.7 | 34.5 | 35.6 | 51.6 |  | 30.9 | 30.5 | 
CCN(CC)C(=C(C(Cl)=C(Cl)Cl)[N+](=O)[O-])N(CC)CC | > 100 | > 100 | > 100 | > 100 | > 100 | > 100 |  | > 100 | > 100 | > 100 | > 100 | > 100 | > 100 | > 100 | > 100 | > 100 | > 100 | > 100 | 67
CC(=O)C(I(OS(=O)(=O)c1ccc(C)cc1)c1ccccc1)=P(c1ccccc1)(c1ccccc1)c1ccccc1 |  | > 100 | 56.1 | 58.7 | 73.5 | 72.8 | 36 | > 100 | > 100 | 70.8 |  | > 100 | 69.2 | 59.6 | > 100 | 38.2 | 17 | 36.4 | > 100
CC(C)(C)O/C=C1/C(=O)OC2C[C@@H](O[Si](C)(C)C(C)(C)C)CC12 (stereo not given in full) | > 100 | > 100 | > 100 | > 100 | > 100 | > 100 | > 100 |  | > 100 | > 100 | 93.3 | > 100 | > 100 | > 100 | > 100 | > 100 |  | > 100 | 73.3
CSc1nc(C)c2c(n1)SCC2 | > 10 | > 10 | > 10 | > 10 | > 10 | > 10 |  | > 10 | > 10 | > 10 | > 10 | > 10 | > 10 | > 10 | > 10 | > 10 | > 10 | > 10 | > 10
COc1cc(S(=O)(=O)Nc2nc(-c3ccc(N4C(=O)CSC4c4cccs4)cc3)cs2)ccc1Cl (stereo not given) | > 100 | > 100 | > 100 | > 100 | > 100 | > 100 | > 100 | > 100 | > 100 |  | > 100 | > 100 | 77.8 | > 100 | 73.4 | > 100 | > 100 | > 100 | 55.9
COc1ccc2nc3c([N+](=O)[O-])ccc4c3c(c2c1)N=CN4CCCN(C)C | > 44.3 | 16.3 | 20.2 | 13.9 | 6.16 | 13.4 | 22.8 | 2.19 | 25.7 | 16.2 | 11.1 | 7.26 | 11.5 | 15.1 | 10.7 | 13 | 28.1 | 31.5 | 
OC(CCN1CCCCC1)(c1ccccc1)c1ccccc1 | > 100 |  | > 100 | > 100 | > 100 | > 100 | > 100 | > 100 | > 100 | > 100 |  | > 100 | > 100 | > 100 | > 100 | > 100 | > 100 | > 100 | > 100
COC(=O)c1cc2c(o1)Sc1ccccc1NC2=O | > 100 | > 100 | > 100 | > 100 | > 100 | > 100 | > 100 | > 100 | > 100 |  | 66.6 | > 100 | > 100 | > 100 |  | > 100 | > 100 | > 100 | 
Ic1ncnc2c1ncn2C1CCCO1 (stereo not given) | > 100 | > 100 | > 100 |  | > 100 | > 100 | > 100 | > 100 | > 100 | > 100 | > 100 | > 100 | > 100 | > 100 | > 100 | > 100 | > 100 | > 100 | 
O=C(Nc1cccc2ccccc12)Nn1cnnc1 | > 100 | > 100 | > 100 | > 100 | > 100 | > 100 | > 100 | > 100 | > 100 | > 100 | > 100 | > 100 | > 100 | > 100 | > 100 | > 100 | > 100 | > 100 | 
COc1cc(OCc2ccc3nc(-c4ccccc4)c(Cl)nc3c2)cc(OC)c1OC | > 100 | > 100 | > 100 | > 100 | > 100 | > 100 | > 100 |  | > 100 | > 100 | > 100 | > 100 | > 100 | > 100 | > 100 | > 100 | > 100 | > 100 | 
Cc1csc2nc3c(cnn3C)c(=S)n12 | > 100 | > 100 | > 100 |  | > 100 | > 100 | > 100 | > 100 | > 100 | > 100 | > 100 | > 100 | > 100 | > 100 | > 100 | > 100 | > 100 | > 100 | > 100
Cc1ccc2nc(CN3CCCC(O)C3)cc(=O)n2c1 (stereo not given) | > 100 | > 100 | > 100 | > 100 | > 100 | > 100 | > 100 | > 100 | > 100 | > 100 | > 100 | > 100 | > 100 | > 100 | > 100 | > 100 | > 100 | > 100 | 
Cc1oc2c(c1C)S(=O)(=O)C(C#N)=C(c1ccccc1)N2 | > 100 | > 100 | > 100 | > 100 | > 100 | > 100 | > 100 | > 100 | > 100 | > 100 | > 100 | > 100 | > 100 | > 100 | > 100 | > 100 | > 100 | > 100 | 
